What all share (format): cell-based
One assay concerns p70S6K. The assay can be described thus: Luminex multiplex assay, p70S6K phosphorylation in cell lysates.
The next assay has as its system HCT116. Description: Growth inhibition (cell proliferation assay), HCT116. The following applies: read-out: Compound 1 Growth Inhibition IC50.
In the next assay the test system is MDA-MB-231. The assay can be described thus: Growth inhibition (cell proliferation assay), MDA-MB-231. The following applies: read-out: Compound 1 Growth Inhibition IC50.
Another assay concerns NCI-H23. Description: Growth inhibition (cell proliferation assay), NCI-H23. The following applies: read-out: Compound 1 Growth Inhibition IC50.
A further assay relates to Akt(S473). The assay can be described thus: Inhibition of Akt(S473) phosphorylation in cell lines. The settings on record: read-out: p-Akt (S473).
Another assay deals with T1, mTORC2 (Homo sapiens, UniProt P42345).
T1 construct: endogenous in cells; host or cells: PC3, A549, HCT116, U-87 MG, MDA-MB-231, NCI-H23, HT-29
The assay can be described thus: Inhibition of mTORC2 measured by phosphorylation of pathway markers (FIG. 1). The following applies: phosphorylation of pathway markers Akt, PRAS40, GSK-3β, p70S6, S6, 4-EBP1. An excerpt: The activity of the TORC1 complex can be followed from the phosphorylation status of 4E-BP1(T46), a direct substrate of mTOR kinase and S6RP(S235/S236), a downstream substrate from mTOR. The activity of the TORC2 complex can be followed directly from the phosphorylation status of Akt(S473) and indirectly from the phosphorylation status of AKT substrates, GSK3β(S9) and PRAS40(T246). […] Full activation of Akt requires an additional phosphorylation on T308 that is done by PDK1 and is speculated to be co-dependent with the TORC2 phosphorylation of the Akt(S473).

Read-outs that look alike come from different tables or passages of the source.

From patent US9557338B2 (SIGNAL PHARMACEUTICALS, LLC, priority 2012, dated 2017) come the findings set out here.

As to `CO[C@H]1CC[C@H](N2C(=O)CNc3ncc(-c4ccc(C(C)(C)O)nc4)nc32)CC1` [Compound 1, 7-(6-(2-hydroxypropan-2-yl)pyridin-3-yl)-1-((1r,4r)-4-methoxycyclohexyl)-3,4-dihydropyrazino-[2,3-b]pyrazin-2(1H)-one], the IC50 in the assay with p70S6K (HCT116 cell line, IGF, read-out: Luminex p70S6K (IGF)) stood at 0.191 µM; in the assay on p70S6K (U87MG cell line, read-out: Luminex p70S6K), 0.103 µM; with HCT116 it was 0.37 µM; in the assay on MDA-MB-231 it was 1.77 µM; in the assay on NCI-H23 it was 3.71 µM; in the assay on Akt(S473) (A549), 0.12 µM. The IC50 was found to be 0.1 µM in the assay on Akt(S473) (HCT116); 0.25 µM with Akt(S473) (HT-29); 0.04 µM in the assay on Akt(S473) (MDA-MB-231); 0.1 µM in the assay with Akt(S473) (NCI-H23); 0.01 µM with Akt(S473) (PC3); 0.15 µM with Akt(S473) (U-87 MG). Also, the “inhibition of mTORC2” value against mTORC2 is “inhibition”.
